Data published in ChEMBL document CHEMBL6120996, “Discovery and optimization of 1,2,4-triazole derivatives as novel ferroptosis inhibitors” (Eur J Med Chem, 2025).
Each block holds one molecule with its values, some of them ahead of it. Active and inactive are the calls of the source. No cut-off for these calls is given here.

Columns and labels:
786-0 [1] = assay: Inhibition of RSL3-induced ferroptosis in human 786-0 cells assessed as cell viability incubated for 24 hrs by CellTiter-LumiTM assay; format: functional, cell-based; details: 786-0, 24 h
HT-1080 = assay: Anti-ferroptotic activity in human GPX4 knockout HT-1080 cells assessed as cell viability at 1 uM incubated for 24 hrs by CellTiter-LumiTM plus luminescent cell viability assay; format: functional, cell-based
[2] = Metabolic stability in human plasma assessed as half life at 1 uM by LC-MS/MS analysis; format: ADME, cell-free
[3] = Metabolic stability in rat plasma assessed as half life at 1 uM by LC-MS/MS analysis; format: ADME, cell-free
[4] = Microsomal stability in human liver microsomes assessed as half life at 0.1 uM by LC-MS/MS analysis; format: ADME, Microsome
[5] = Microsomal stability in rat liver microsomes assessed as half life at 0.1 uM by LC-MS/MS analysis; format: ADME, Microsome
[6] = Microsomal stability in human liver microsomes assessed as hepatic extraction ratio at 0.1 uM by LC-MS/MS analysis; format: ADME, Microsome; details: read-out: ERH
[7] = Microsomal stability in rat liver microsomes assessed as hepatic extraction ratio at 0.1 uM by LC-MS/MS analysis; format: ADME, Microsome; details: read-out: ERH
786-0 [8] = assay: Inhibition of RSL3-induced ferroptosis in human 786-0 cells assessed as cell viability by assessing cell morphology incubated for 24 hrs by CellTiter-LumiTM plus luminescent cell viability assay; format: functional, cell-based; details: 786-0, 24 h
[9] = Inhibition of erastin induced ferroptosis in human 786-0 cells assessed as cell viability incubated for 24 hrs by CellTiter-LumiTM assay; format: functional, cell-based; details: 786-0, 24 h
[10] = Inhibition of RSL3 induced ferroptosis in H9c2 cells assessed as cell viability incubated for 24 hrs by CellTiter-LumiTM assay; format: functional, cell-based; details: Rattus norvegicus, H9c2, 24 h
[11] = Inhibition of RSL3 induced ferroptosis in human HT-1080 cells assessed as cell viability incubated for 24 hrs by CellTiter-LumiTM assay; format: functional, cell-based; details: HT-1080, 24 h
[12] = Inhibition of RSL3 induced ferroptosis in human SK-HEP1 cells assessed as cell viability incubated for 24 hrs by CellTiter-LumiTM assay; format: functional, cell-based; details: SK-HEP1, 24 h
[13] = Inhibition of RSL3 induced ferroptosis in human MHCC97H cells assessed as cell viability incubated for 24 hrs by CellTiter-LumiTM assay; format: functional, cell-based
786-0 [14] = assay: Inhibition of STS induced apoptosis in human 786-0 cells assessed as cell viability at 1 uM incubated for 24 hrs by CellTiter-LumiTM assay; format: functional, cell-based
786-0 [15] = assay: Inhibition of H2O2 induced necrosis in human 786-0 cells assessed as cell viability at 1 uM incubated for 24 hrs by CellTiter-LumiTM assay; format: functional, cell-based
786-0 [16] = assay: Metal chelating activity assessed as Fe2+ chelation in human 786-0 cells assessed as intracellular ferrous ion level at 1 uM by FerroOrange fluorescent probe based assay; format: cell-based
786-0 [17] = assay: Inhibition of RSL3 induced ferroptosis in human 786-0 cells assessed as cell viability in presence of iFSP1 at 1 uM measured after 24 hrs by CellTiter-LumiTM assay; format: functional, cell-based
786-0 [18] = assay: Effect on erastin-induced decrease in GSH level in human 786-0 cells at 1 uM incubated for 10 hrs by Total intracellular GSH assay; format: functional, cell-based
786-0 [19] = assay: Cytotoxicity against human 786-0 cells assessed as cell viability incubated for 24 hrs by CellTiter-LumiTM assay; format: functional
786-0 [20] = assay: Inhibition of RSL3 induced lipid-ROS accumulation in human 786-0 cells incubated for 2.5 hrs by C11-BODIPY 581/591 staining coupled with flow cytometry analysis; format: functional, cell-based; details: dose 0.1-1 µM
786-0 [21] = assay: Inhibition of RSL3 induced lipid-ROS accumulation in human 786-0 cells assessed as fast elimination at 1 uM measured after 0.25 to 2.5 hrs by C11-BODIPY 581/591 staining coupled with flow cytometry analysis; format: functional, cell-based; details: time 0.25-2.5 hrs
SK-HEP1 [22] = assay: Inhibition of RSL3 induced lipid-ROS accumulation in human SK-HEP1 cells at 1 uM incubated for 2.5 hrs by C11-BODIPY 581/591 staining coupled with flow cytometry analysis; format: functional, cell-based
SK-HEP1 [23] = assay: Inhibition of RSL3 induced lipid-ROS accumulation in human SK-HEP1 cells at 1 uM incubated for 0.5 hrs by C11-BODIPY 581/591 staining coupled with flow cytometry analysis; format: functional, cell-based
[24] = Antioxidant activity assessed as free radical scavenging activity incubated for 30 mins in dark by DPPH assay relative to control; format: functional
[25] = Suppression of autoxidation of liposomes egg ( unknown origin) phosphatidylcholine lipids as substrate at 0.1 to 2.5 uM incubated for 5 min by C11-BODIPY 581/591 dye based fluorescent assay; format: functional; details: dose 0.1-2.5 µM
Mus musculus [26] = assay: Anti-ferroptotic activity in ConA-induced C57 mouse liver injury model assessed as reduction in ALT levels in serum at 10 mg/kg, ip pre-treated 1 day followed by treated with ConA measured after 24 hrs; format: functional, organism-based; details: time 2.0 day
Mus musculus [27] = assay: Anti-ferroptotic activity in ConA-induced C57 mouse liver injury model assessed as reduction in AST levels in serum at 10 mg/kg, ip pre-treated 1 day followed by challenged with ConA measured after 24 hrs; format: functional, organism-based
786-0 [28] = assay: Effect on GPX4 expression in human 786-0 cells at 1 uM incubated for 2.5 hrs by Western blot analysis; format: functional, cell-based
786-0 [29] = assay: Effect on IRP1 expression in human 786-0 cells at 1 uM incubated for 2.5 hrs by western blot analysis; format: functional, cell-based
786-0 [30] = assay: Effect on ACSL4 expression in human 786-0 cells at 1 uM incubated for 2.5 hrs by Western blot analysis; format: functional, cell-based
786-0 [31] = assay: Effect on SLC7A11 expression in human 786-0 cells at 1 uM incubated for 2.5 hrs by Western blot analysis; format: functional, cell-based
786-0 [32] = assay: Effect on TFRC expression in human 786-0 cells at 1 uM incubated for 2.5 hrs by Western blot analysis; format: functional, cell-based
786-0 [33] = assay: Effect on FTH1 expression in human 786-0 cells at 1 uM incubated for 2.5 hrs by western blot analysis; format: functional, cell-based
786-0 [34] = assay: Effect on FTL expression in human 786-0 cells at 1 uM incubated for 2.5 hrs by western blot analysis; format: functional, cell-based
Mus musculus [35] = assay: Anti-ferroptotic activity in ConA-induced C57 mouse liver injury model assessed as decrease in acute liver injury at 10 mg/kg, ip pre-administered one day followed by treated with ConA measured after 24 hrs by HE staining based analysis; format: functional, organism-based; details: time 48.0 hrs
Mus musculus [36] = assay: Anti-ferroptotic activity in ConA-induced C57 mouse acute liver injury model assessed as reduction in malondialdehyde levels at 10 mg/kg, ip pre-administered one day followed by treated with ConA measured after 24 hrs by MDA kit assay; format: functional, organism-based; details: time 48.0 hrs
Mus musculus [37] = assay: Anti-ferroptotic activity in ConA-induced C57 mouse acute liver injury model assessed as assessed as reduction in PTGS2 mRNA levels in liver tissue at 10 mg/kg, ip pre-administered one day followed by treated with ConA measured after 24 hrs by qRT-PCR analysis; format: functional, organism-based; details: time 48.0 hrs
Mus musculus [38] = assay: Anti-ferroptotic activity in ConA-induced C57 mouse acute liver injury model assessed as assessed as reduction in 4-HNE accumulation in liver tissue at 10 mg/kg, ip pre-administered one day followed by treated with ConA measured after 24 hrs by 4-HNE staining based analysis; format: functional, organism-based; details: time 48.0 hrs
786-0 [39] = assay: Effect on TFRC expression in human 786-0 cells in presence of 0.25 uM RSL3 at 1 uM incubated for 2.5 hrs by Western blot analysis; format: functional, cell-based
786-0 [40] = assay: Effect on IRP1 expression in human 786-0 cells in presence of 0.25 uM RSL3 at 1 uM incubated for 2.5 hrs by Western blot analysis; format: functional, cell-based
786-0 [41] = assay: Effect on FTH1 expression in human 786-0 cells in presence of 0.25 uM RSL3 at 1 uM incubated for 2.5 hrs by Western blot analysis; format: functional, cell-based
786-0 [42] = assay: Effect on FTL expression in human 786-0 cells in presence of 0.25 uM RSL3 at 1 uM incubated for 2.5 hrs by Western blot analysis; format: functional, cell-based
[43] = Microsomal stability in human liver microsomes assessed as hepatic clearance at 0.1 uM by LC-MS/MS analysis; format: ADME, Microsome
[44] = Microsomal stability in rat liver microsomes assessed as hepatic clearance at 0.1 uM by LC-MS/MS analysis; format: ADME, Microsome
[45] = Metal chelating activity assessed as Fe2+ chelation assessed as absorbance peak at 430 nm by UV-vis spectroscopy; details: dose 1.0 µM
786-0 [46] = assay: Inhibition of RSL3-induced ferroptosis in human 786-0 cells assessed as cell protection by assessing cell morphology at 1 uM incubated for 24 hrs; format: functional, cell-based

EC50 (786-0 [1]): 80 nM
half-life at 1 µM [2]: 23.9 h
half-life at 1 µM [3]: 4.97 h
t1/2 ([4]; microsomes, 0.1 µM): 4.02 min
t1/2 ([5]; microsomes, 0.1 µM): 1.66 min
hepatic extraction ratio at 0.1 µM [6]: 0.99
hepatic extraction ratio at 0.1 µM [7]: 0.993
EC50 (786-0 [8]): 84 nM
SMILES: COc1ccc(COc2c(OC)cccc2C2N(c3ccccc3)N=C(C(C)=O)N2c2ccc(N(C)C)cc2)cc1 (stereo not given)
Activity (HT-1080): Active
EC50 [9]: 54 nM
EC50 [10]: 142 nM
EC50 [11]: 74 nM
EC50 [12]: 164 nM
EC50 [13]: 349 nM
inhibition (786-0 [14]): inactive
inhibition (786-0 [15]): inactive
Activity (786-0 [16]): inactive
inhibition (786-0 [17]): Active
Activity (786-0 [18]): inactive
CC50 (786-0 [19]): > 10000 nM
inhibition (786-0 [20]): Dose-dependent-effect
inhibition (786-0 [21]): Active; Eliminated As Fast As Fer-1
inhibition (SK-HEP1 [22]): Active
inhibition (SK-HEP1 [23]): Active
Activity [24]: Active
Activity [25]: Dose-dependent-effect
Activity (Mus musculus [26]): Active
Activity (Mus musculus [27]): Active
Activity (786-0 [28]): No effect
Activity (786-0 [29]): No effect
Activity (786-0 [30]): No effect
Activity (786-0 [31]): No effect
Activity (786-0 [32]): No effect
Activity (786-0 [33]): No effect
Activity (786-0 [34]): No effect
Activity (Mus musculus [35]): Active
Activity (Mus musculus [36]): Active
Activity (Mus musculus [37]): Active
Activity (Mus musculus [38]): Active
Activity (786-0 [39]): inactive
Activity (786-0 [40]): inactive
Activity (786-0 [41]): inactive
Activity (786-0 [42]): inactive

EC50 (786-0 [1]): 60 nM
half-life at 1 µM [2]: 33.7 h
half-life at 1 µM [3]: 6.58 h
half-life at 0.1 µM ([4]; liver microsomes): 5.74 min
half-life at 0.1 µM ([5]; liver microsomes): 2.87 min
CLhep predicted at 0.1 µM [43]: 20.4 mL/min/kg
hepatic extraction ratio at 0.1 µM [6]: 0.986
CLhep predicted at 0.1 µM [44]: 54.5 mL/min/kg
hepatic extraction ratio at 0.1 µM [7]: 0.987
EC50 (786-0 [8]): 62 nM
Activity [45]: inactive
SMILES: COc1cccc(C2N(c3ccccc3)N=C(C(C)=O)N2c2ccc(N(C)C)cc2)c1OCc1ccc(F)c(F)c1 (stereo not given)
Activity (HT-1080): Active
EC50 [9]: 44 nM
EC50 [10]: 122 nM
EC50 [11]: 186 nM
EC50 [12]: 134 nM
EC50 [13]: 288 nM
inhibition (786-0 [14]): inactive
inhibition (786-0 [15]): inactive
Activity (786-0 [16]): inactive
inhibition (786-0 [17]): Active
Activity (786-0 [18]): inactive
CC50 (786-0 [19]): > 40000 nM
inhibition (786-0 [20]): Dose-dependent-effect
inhibition (786-0 [21]): Active; Eliminated As Fast As Fer-1
inhibition (SK-HEP1 [22]): Active
inhibition (SK-HEP1 [23]): Active
Activity [24]: Active
Activity [25]: Dose-dependent-effect
Activity (Mus musculus [26]): Active
Activity (Mus musculus [27]): Active
Activity (786-0 [28]): No effect
Activity (786-0 [29]): No effect
Activity (786-0 [30]): No effect
Activity (786-0 [31]): No effect
Activity (786-0 [32]): No effect
Activity (786-0 [33]): No effect
Activity (786-0 [34]): No effect
Activity (Mus musculus [35]): Active
Activity (Mus musculus [36]): Active
Activity (Mus musculus [37]): Active
Activity (Mus musculus [38]): Active
Activity (786-0 [46]): Active
Activity (786-0 [39]): inactive
Activity (786-0 [40]): inactive
Activity (786-0 [41]): inactive
Activity (786-0 [42]): inactive
